Results from patent US20070191336A1 (priority 2003, published 2007).

biological target: T1, phospho p-38 alpha kinase (Homo sapiens, UniProt Q16539); experiment: P-38 alpha kinase assay (spectrophotometric, pyruvate kinase/lactate dehydrogenase coupled); assay type: biochemical; settings: Table 3; rates from […] to 2 h time frame
T1 construct: purchased Panvera
Protocol: In this assay, the oxidation of NADH was continuously measured spectrophometrically. […] The reaction was initiated by adding ATP. The absorption at 340 nm was monitored continuously for up to 4 hours at 30° C. on Polarstar Optima plate reader (BMG). The kinase activity (reaction rate) was calculated from the slope at the time frame from 1.5 h to 2 h.
For inhibition determinations, test compounds were incubated with the reaction mixture for ˜5 min before adding ATP to start the reaction. […] IC50 values were calculated from a series of % inhibition values determined at a range of concentrations of each inhibitor using Prism to process the data and fit inhibition curves. Generally, the rates obtained at the time frame of 1.5 h to 2 h were used for these calculations.

T1 sequence (Q16539 whole entry): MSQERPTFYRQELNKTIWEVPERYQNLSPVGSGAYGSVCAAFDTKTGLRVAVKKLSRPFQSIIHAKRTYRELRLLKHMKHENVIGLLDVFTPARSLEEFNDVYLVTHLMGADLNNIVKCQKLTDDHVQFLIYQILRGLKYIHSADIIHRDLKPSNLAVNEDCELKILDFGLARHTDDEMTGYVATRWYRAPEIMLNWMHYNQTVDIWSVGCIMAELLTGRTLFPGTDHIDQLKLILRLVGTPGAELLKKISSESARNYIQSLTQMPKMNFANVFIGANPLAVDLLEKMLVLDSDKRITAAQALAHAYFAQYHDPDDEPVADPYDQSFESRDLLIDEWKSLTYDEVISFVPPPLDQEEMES

Q: With CC(C)(C)c1cc(NC(=O)Nc2ccccc2F)n(-c2cccc(CO)c2)n1 [Example 303, 1-{3-t-butyl-1-[3-(hydroxymethyl)phenyl]-1H-pyrazol-5-yl}-3-(2-fluorophenyl)urea] as the compound, how does the IC50 read?
A: 89 nM

Q: CC(C)(C)c1cc(NC(=O)Nc2ccccc2F)n(-c2ccc(CC(=O)O)cc2)n1 [Example 306, 2-(4-(3-t-butyl-5-(3-(2-fluorophenyl)ureido)-1H-pyrazol-1-yl)phenyl)acetic acid] was tested. Which IC50 did it give?
A: 58 nM

Q: Which IC50 does the source give for CC(C)(C)c1cc(NC(=O)Nc2cccc(F)c2F)n(-c2ccc(CC(=O)O)cc2)n1 [Example 307, 2-(4-(3-t-butyl-5-(3-(2,3-difluorophenyl)ureido)-1H-pyrazol-1-yl)-phenyl)acetic acid] here?
A: 49 nM

Q: For CC(C)(C)c1cc(NC(=O)Nc2cccc3ccccc23)n(-c2cccc(CN3C(=O)CCC3=O)c2)n1 [Example 308, 1-(3-t-butyl-1-{3-[(2,5-dioxopyrrolidin-1-yl)methyl]phenyl}-1H-pyrazol-5-yl)-3-(naphthalen-1-yl)urea], which IC50 is on record?
A: 120 nM

Q: Which IC50 does the source give for COc1cccc(-n2nc(C(C)(C)C)cc2NC(=O)Nc2ccc(F)cc2)c1 [Example 309, 1-(3-t-butyl-1-(3-methoxyphenyl)-1H-pyrazol-5-yl)-3-(4-fluorophenyl)urea] here?
A: 300 nM

Q: COc1cccc(-n2nc(C(C)(C)C)cc2NC(=O)Nc2cccc(F)c2)c1 [Example 310, 1-(3-t-butyl-1-(3-methoxyphenyl)-1H-pyrazol-5-yl)-3-(3-fluorophenyl)urea] was tested. Which IC50 did it give?
A: 130 nM

Q: With COc1cccc(-n2nc(C(C)(C)C)cc2NC(=O)Nc2cccc(Cl)c2)c1 [Example 311, 1-(3-t-butyl-1-(3-methoxyphenyl)-1H-pyrazol-5-yl)-3-(3-chlorophenyl)urea] as the compound, how does the IC50 read?
A: 182 nM

Q: Which IC50 does the source give for COc1cccc(-n2nc(C(C)(C)C)cc2NC(=O)Nc2cccc(Br)c2)c1 [Example 312, 1-(3-t-butyl-1-(3-methoxyphenyl)-1H-pyrazol-5-yl)-3-(3-bromophenyl)urea] here?
A: 349 nM

Q: With COc1cccc(-n2nc(C(C)(C)C)cc2NC(=O)Nc2cccc(C)c2)c1 [Example 313, 1-(3-t-butyl-1-(3-methoxyphenyl)-1H-pyrazol-5-yl)-3-m-tolylurea] as the compound, how does the IC50 read?
A: 250 nM

Q: COc1cccc(-n2nc(C(C)(C)C)cc2NC(=O)Nc2ccc(C(F)(F)F)cc2)c1 [Example 314, 1-(3-t-butyl-1-(3-methoxyphenyl)-1H-pyrazol-5-yl)-3-(4-(trifluoromethyl)phenyl)urea] was tested. Which IC50 did it give?
A: 250 nM

Q: With COc1cccc(-n2nc(C(C)(C)C)cc2NC(=O)Nc2ccc(Cl)c(C(F)(F)F)c2)c1 [Example 316, 1-(3-t-butyl-1-(3-methoxyphenyl)-1H-pyrazol-5-yl)-3-(4-chloro-3-(trifluoromethyl)phenyl)urea] as the compound, how does the IC50 read?
A: 420 nM

Q: How did the IC50 turn out when COc1cccc(-n2nc(C(C)(C)C)cc2NC(=O)Nc2ccc(Cl)c(Cl)c2)c1 [Example 317, 1-(3-t-butyl-1-(3-methoxyphenyl)-1H-pyrazol-5-yl)-3-(3,4-dichlorophenyl)urea] was run?
A: 68 nM

Q: How did the IC50 turn out when COc1cccc(-n2nc(C(C)(C)C)cc2NC(=O)Nc2ccc(Cl)cc2Cl)c1 [Example 318, 1-(3-t-butyl-1-(3-methoxyphenyl)-1H-pyrazol-5-yl)-3-(2,4-dichlorophenyl)urea] was run?
A: 670 nM

Q: With COc1cccc(-n2nc(C(C)(C)C)cc2NC(=O)Nc2cc(Cl)cc(Cl)c2)c1 [Example 319, 1-(3-t-butyl-1-(3-methoxyphenyl)-1H-pyrazol-5-yl)-3-(3,5-dichlorophenyl)urea] as the compound, how does the IC50 read?
A: 320 nM

Q: CC(C)(C)c1cc(NC(=O)Nc2ccc(Cl)cc2)n(-c2cccc(CN3C(=O)CCC3=O)c2)n1 [Example 320, 1-(3-t-butyl-1-{3-[(2,5-dioxopyrrolidin-1-yl)methyl]phenyl}-1H-pyrazol-5-yl)-3-(4-chlorophenyl)urea] was tested. Which IC50 did it give?
A: 790 nM

Q: COc1cccc(-n2nc(C(C)(C)C)cc2NC(=O)Nc2ccc([N+](=O)[O-])cc2)c1 [Example 321, 1-(3-t-butyl-1-(3-methoxyphenyl)-1H-pyrazol-5-yl)-3-(4-nitrophenyl)urea] was tested. Which IC50 did it give?
A: 520 nM

Q: COc1cccc(-n2nc(C(C)(C)C)cc2NC(=O)Nc2ccc(C#N)cc2)c1 [Example 322, 1-(3-t-butyl-1-(3-methoxyphenyl)-1H-pyrazol-5-yl)-3-(4-cyanophenyl)urea] was tested. Which IC50 did it give?
A: 2020 nM

same assay, conditions: read-out: % Inhibition @ concentration, Table 3; at 1 uM

Q: Which inhibition at 1 µM does the source give for CCOC(=O)C(C)Cc1cccc(-n2nc(C(C)(C)C)cc2NC(=O)Nc2cccc3ccccc23)c1 (racemic) [Example 200] here?
A: 73%

Q: Which inhibition at 1 µM does the source give for COc1cccc(-n2nc(C(C)(C)C)cc2NC(=O)Nc2ccc(N(C)C)cc2)c1 [Example 323, 1-(3-t-butyl-1-(3-methoxyphenyl)-1H-pyrazol-5-yl)-3-(4-(dimethylamino)phenyl)urea] here?
A: 9%

same assay, conditions: read-out: % Inhibition @ concentration, Table 3; at 10 uM

Q: Which inhibition at 10 µM does the source give for CC(C)(C)c1cc(NC(=O)Nc2ccc(F)cc2)n(-c2cccc(CCC(=O)O)c2)n1 [Example 146, 3-(3-{3-t-butyl-5-[3-(4-fluoro-phenyl)-ureido]-pyrazol-1-yl}-phenyl)-propionic acid] here?
A: 9%

Q: CCOC(=O)CCc1cccc(-n2nc(C(C)(C)C)cc2NC(=O)Nc2ccc(OC)cc2)c1 [Example 147, 3-(3-{3-t-butyl-5-[3-(4-methoxy-phenyl)-ureido]-pyrazol-1-yl}-phenyl)-propionic acid ethyl ester] was tested. Which inhibition at 10 µM did it give?
A: 27%

Q: How did the inhibition at 10 µM turn out when CC(C)(C)c1cc(NC(=O)c2nccc3ccccc23)n(-c2cccc(CCC(=O)O)c2)n1 [Example 150, 3-(3-{3-t-butyl-5-[(isoquinoline-1-carbonyl)-amino]-pyrazol-1-yl}-phenyl)-propionic acid] was run?
A: 53%

Q: For CCOC(=O)CCc1cccc(-n2nc(C(C)(C)C)cc2NC(=O)c2ccc3ccccc3c2)c1 [Example 154, 3-(3-{3-t-butyl-5-[(naphthalene-2-carbonyl)-amino]-pyrazol-1-yl}-phenyl)-propionic acid ethyl ester], which inhibition at 10 µM is on record?
A: 21%

Q: With CC(C)(C)c1cc(NC(=O)c2ccc3ccccc3c2)n(-c2cccc(CCC(=O)O)c2)n1 [Example 155] as the compound, how does the inhibition at 10 µM read?
A: 58%

Q: COc1cccc(-n2nc(C(C)(C)C)cc2NC(=O)Nc2cccc(C(F)(F)F)c2)c1 [Example 315, 1-(3-t-butyl-1-(3-methoxyphenyl)-1H-pyrazol-5-yl)-3-(3-(trifluoromethyl)phenyl)urea] was tested. Which inhibition at 10 µM did it give?
A: 54%

Q: Which inhibition at 10 µM does the source give for COc1cccc(-n2nc(C(C)(C)C)cc2NC(=O)Nc2ccc(N(C)C)cc2)c1 [Example 323, 1-(3-t-butyl-1-(3-methoxyphenyl)-1H-pyrazol-5-yl)-3-(4-(dimethylamino)phenyl)urea] here?
A: 51%

same assay, conditions: read-out: % inhibition @ concentration, Table 2; at 10 uM

Q: With CC1(C(=O)NCc2cccc(-n3nc(C(C)(C)C)cc3NC(=O)Nc3ccc(Cl)cc3)c2)CC2(C)CC(C)(C1)C(=O)NC2=O (centres unmarked) [Example 10, 1,5,7-trimethyl-2,4-dioxo-3-aza-bicyclo[3.3.1]nonane-7-carboxylic acid 3-{3-t-butyl-5-[3-(4-chloro-phenyl)-ureido]-pyrazol-1-yl}benzylamide] as the compound, how does the inhibition at 10 µM read?
A: 83%

Q: Which inhibition at 10 µM does the source give for CC(C)(C)c1cc(NC(=O)Nc2cccc3ccccc23)n(-c2cccc(C(=O)N3C(=O)OC[C@H]3c3ccccc3)c2)n1 [Example 17, D-1-{5-tert-butyl-2-[3-(2-oxo-4-phenyl-oxazolidinyl-3-carbonyl)phenyl]-2H-pyrazol-3-yl}-3-(naphthalen-1-yl)urea] here?
A: 40%

Q: With CC(C)(C)c1cc(NC(=O)Nc2cccc3ccccc23)n(-c2cccc(C(=O)N3C(=O)OC[C@@H]3c3ccccc3)c2)n1 [Example 18, L-1-{5-tert-butyl-2-[3-(2-oxo-4-phenyl-oxazolidinyl-3-carbonyl)phenyl]-2H-pyrazol-3-yl}-3-(naphthalen-1-yl)urea] as the compound, how does the inhibition at 10 µM read?
A: 60%
